According to PubChem BioAssay AID1117278 (The Scripps Research Institute Molecular Screening Center, 2014):
The source made the active and inactive calls. How the calls were made is not given here.

Test system: P. falciparum stage V gametocytes, BacTiter-Glo ATP, 24 h
Assay: viability inhibitors of stage V gametocytes – luminescence, dose response (AID 1117278)

**Q.** How did the IC50 turn out when `O=C(C[N+]12CCC(CC1)C(OC(=O)c1ccccc1)C2)c1ccc([N+](=O)[O-])cc1` (stereo unspecified) was run?
**A.** Its IC50 is > 109 µM (inactive).
